{
  "source": "patent US20240277873A1",
  "about": "“ULTRABRIGHT […] PROBES FOR DETECTION AND IMAGING” (Nanyang Technological University, priority 2021, published 2024)",
  "key": {"[1]": {"experiment": "Blood test: chemiluminescence after incubation in healthy mouse blood", "conditions": "20 μM, 30 min, 100 μL blood", "procedure": "BTPDNe (20 μM) and MPDNe (20 μM) were incubated for 30 min in healthy mouse blood (100 μL), respectively. Chemiluminescence intensities were measured by IVIS system bioluminescence with an acquisition time of 60 s."}, "IMQ-induced psoriasis": {"system": "IMQ-induced psoriasis", "experiment": "Real-time chemiluminescence imaging in IMQ-induced psoriasis model", "format": "in vivo, BALB/c mice", "conditions": "3 min post-topical administration of BTPDNe, microneedle", "procedure": "The control group was treated with Vaseline (50 mg/d) and the IMQ-treatment group was applied with IMQ cream (60 mg/d, 5%) once a day. […] Probe BTPDNe (10 uM, 1 mM in DMSO) was thoroughly mixed with Aquaphor (˜10 mg) and applied for psoriasis imaging, followed by poly(methyl methacrylate) microneedle treatment for 1 min. Then, chemiluminescent signals at different time-points (0, 3, 5, 10, 15, 30, 45 and 60 min) after probe-treatment were recorded using IVIS system bioluminescence with acquiring time of 180 s. Until the third day, all the mice were sacrificed to collect tissue and blood for further experiments (hematoxylin and eosin (H&E) staining and flow cytometry analysis) as described in Example 11."}, "3T3 cells": {"system": "3T3 cells", "experiment": "Cytotoxicity assay (MTS), 3T3 cells", "format": "cell-based, mouse", "conditions": "2.5 to 50 μM, 24 h", "procedure": "(§1) Neutrophils and normal mouse embryonic fibroblasts (3T3) cells were seeded in 96-well plates which have 5×10^4 cells per well and incubated for 24 h. Then, BTPDNe at different concentrations (2.5, 5, 10, 20 and 50 μM) was added into the neutrophils and 3T3 cells, respectively. After 24 h incubation, MTS assay was added to the cell for 4 h incubation. After incubation, the absorbance of MTS at 490 nm was recorded by using a microplate reader (SpectraMax M, Switzerland). The assays were performed in five sets for each concentration."}, "neutrophils": {"system": "neutrophils", "experiment": "Cytotoxicity assay (MTS), neutrophils", "format": "cell-based", "conditions": "2.5 to 50 μM, 24 h", "procedure": "as §1"}},
  "data": [
    {"smiles": "COC1(c2ccc(-c3nc4ccccc4s3)c(OCc3ccc(NC(=O)[C@@H](NC(=O)[C@@H]4CCCN4C(=O)[C@H](C)NC(=O)[C@H](C)NC(C)=O)C(C)C)cc3)c2)OOC12C1CC3CC(C1)CC2C3", "note": "(stereo partly drawn) [BTPDNe]", "values": [
      {"measurement": "chemiluminescence intensities after incubation with healthy mouse blood", "setting": "[1]", "value": "Negligible"},
      {"measurement": "chemiluminescent signal from dorsal skins vs control group, day 1", "setting": "IMQ-induced psoriasis; day 1 post IMQ", "value": 3.1, "unit": "fold"},
      {"measurement": "chemiluminescent signal from dorsal skins vs control group, day 2", "setting": "IMQ-induced psoriasis; day 2 post IMQ", "value": 3.7, "unit": "fold"},
      {"measurement": "chemiluminescent signal from dorsal skins vs control group, day 3", "setting": "IMQ-induced psoriasis; day 3 post IMQ", "value": 2.9, "unit": "fold"},
      {"measurement": "cytotoxicity (cell viability, MTS)", "setting": "3T3 cells", "value": "no cytotoxicity"},
      {"measurement": "cytotoxicity (cell viability, MTS)", "setting": "neutrophils", "value": "no cytotoxicity"}
    ]}
  ]
}
